Results published in ChEMBL document CHEMBL3045313, “Reduced Lantadenes A and B: semi-synthetic synthesis, selective cytotoxicity, apoptosis induction and inhibition of NO, TNF- production in HL-60 cells” (Med Chem Res, 2013).
Activity calls are given as the source filed them. The calls are words filed in the database; no cut-off is given here.

Tests used:
HL-60 [1] = assay: Cell cycle arrest in Homo sapiens (human) HL60 cells assessed as accumulation at S phase at 15 uM after 12 hr by propidium iodide staining-based FACS flow cytometric analysis (reference value: 56.8 +/- 2.4%); format: functional
HL-60 [2] = assay: Cell cycle arrest in Homo sapiens (human) HL60 cells assessed as accumulation at G2/M phase at 15 uM after 9 hr by propidium iodide staining-based FACS flow cytometric analysis (reference value: 9 +/- 1.2%); format: functional
HL-60 [3] = assay: Upregulation of caspase-3 expression in Homo sapiens (human) HL60 cells at 15 uM after 4 hr by RT-PCR analysis; format: functional, cell-based
HSC-2 = assay: Cytotoxicity against Homo sapiens (human) HSC2 cells assessed as growth inhibition after 48 hr by MTT assay; format: functional, cell-based; details: HSC-2, 48 h
HL-60 [4] = assay: Cell cycle arrest in Homo sapiens (human) HL60 cells assessed as accumulation at S phase at 15 uM after 9 hr by propidium iodide staining-based FACS flow cytometric analysis (reference value: 56.8 +/- 2.4%); format: functional
HL-60 [5] = assay: Downregulation of NF-kappaB expression in Homo sapiens (human) HL60 cells at 15 uM after 4 hr by RT-PCR analysis; format: functional, cell-based
HL-60 [6] = assay: Inhibition of TNFalpha production in Homo sapiens (human) HL60 cells after 6 hr by ELISA; format: functional, cell-based
HL-60 [7] = assay: Downregulation of bcl-2 expression in Homo sapiens (human) HL60 cells at 15 uM after 4 hr by RT-PCR analysis; format: functional, cell-based
HL-60 [8] = assay: Cell cycle arrest in Homo sapiens (human) HL60 cells assessed as accumulation at G2/M phase at 15 uM after 6 hr by propidium iodide staining-based FACS flow cytometric analysis (reference value: 9 +/- 1.2%); format: functional
HL-60 [9] = assay: Downregulation of iNOS expression in Homo sapiens (human) HL60 cells after 12 hr by scanning densitometric analysis; format: functional, cell-based
HL-60 [10] = assay: Cell cycle arrest in Homo sapiens (human) HL60 cells assessed as accumulation at G0/G1 phase at 15 uM after 3 hr by propidium iodide staining-based FACS flow cytometric analysis (reference value: 36.2 +/- 2.4%); format: functional
HL-60 [11] = assay: Inhibition of nitrite production in Homo sapiens (human) HL60 cells after 12 hr by Griess assay; format: functional, cell-based
HL-60 [12] = assay: Cell cycle arrest in Homo sapiens (human) HL60 cells assessed as accumulation at sub-G1 phase at 15 uM after 6 hr by propidium iodide staining-based FACS flow cytometric analysis (reference value: 0.1%); format: functional
HL-60 [13] = assay: Cell cycle arrest in Homo sapiens (human) HL60 cells assessed as accumulation at sub-G1 phase at 15 uM after 3 hr by propidium iodide staining-based FACS flow cytometric analysis (reference value: 0.1%); format: functional
HL-60 [14] = assay: Cytotoxicity against Homo sapiens (human) HL60 cells assessed as growth inhibition after 48 hr by MTT assay; format: functional, cell-based; details: HL-60, 48 h
Vero = assay: Cytotoxicity against Chlorocebus aethiops (African green monkey) Vero cells assessed as growth inhibition after 48 hr by MTT assay; format: cell-based; details: Chlorocebus sabaeus
HL-60 [15] = assay: Induction of apoptosis in Homo sapiens (human) HL60 cells assessed as caspase 3 activation at 15 uM after 24 hr by colorimetric analysis; format: functional, cell-based
HL-60 [16] = assay: Cell cycle arrest in Homo sapiens (human) HL60 cells assessed as accumulation at G0/G1 phase at 15 uM after 9 hr by propidium iodide staining-based FACS flow cytometric analysis (reference value: 36.2 +/- 2.4%); format: functional
HL-60 [17] = assay: Cell cycle arrest in Homo sapiens (human) HL60 cells assessed as accumulation at G0/G1 phase at 15 uM after 6 hr by propidium iodide staining-based FACS flow cytometric analysis (reference value: 36.2 +/- 2.4%); format: functional
HL-60 [18] = assay: Cell cycle arrest in Homo sapiens (human) HL60 cells assessed as accumulation at G2/M phase at 15 uM after 12 hr by propidium iodide staining-based FACS flow cytometric analysis (reference value: 8.2 +/- 0.4%)
HL-60 [19] = assay: Cell cycle arrest in Homo sapiens (human) HL60 cells assessed as accumulation at S phase at 15 uM after 6 hr by propidium iodide staining-based FACS flow cytometric analysis (reference value: 56.8 +/- 2.4%); format: functional
HL-60 [20] = assay: Cell cycle arrest in Homo sapiens (human) HL60 cells assessed as accumulation at G2/M phase at 15 uM after 3 hr by propidium iodide staining-based FACS flow cytometric analysis (reference value: 9 +/- 1.2%); format: functional
HL-60 [21] = assay: Downregulation of iNOS expression in Homo sapiens (human) HL60 cells at 15 uM after 4 hr by RT-PCR analysis relative to control; format: functional, cell-based
HL-60 [22] = assay: Cell cycle arrest in Homo sapiens (human) HL60 cells assessed as accumulation at G0/G1 phase at 15 uM after 12 hr by propidium iodide staining-based FACS flow cytometric analysis (reference value: 36.2 +/- 2.4%); format: functional
HL-60 [23] = assay: Induction of apoptosis in Homo sapiens (human) HL60 cells assessed as appearance of apoptotic bodies at 15 uM after 24 hr by hoechst 33258 staining-based fluorescence microscopic analysis relative to control; format: functional, cell-based
HL-60 [24] = assay: Cell cycle arrest in Homo sapiens (human) HL60 cells assessed as accumulation at sub-G1 phase at 15 uM after 12 hr by propidium iodide staining-based FACS flow cytometric analysis (reference value: 0.1%); format: functional
HL-60 [25] = assay: Upregulation of bax expression in Homo sapiens (human) HL60 cells at 15 uM after 4 hr by RT-PCR analysis; format: functional, cell-based
HL-60 [26] = assay: Cell cycle arrest in Homo sapiens (human) HL60 cells assessed as accumulation at S phase at 15 uM after 3 hr by propidium iodide staining-based FACS flow cytometric analysis (reference value: 56.8 +/- 2.4%); format: functional
HL-60 [27] = assay: Induction of apoptosis in Homo sapiens (human) HL60 cells assessed as DNA fragmentation at 15 uM after 24 hr by hoechst 33258 staining-based fluorescence microscopic analysis relative to control; format: functional, cell-based
MCF7 = assay: Cytotoxicity against Homo sapiens (human) MCF7 cells assessed as growth inhibition after 48 hr by MTT assay; format: functional, cell-based; details: MCF7, 48 h
HCT-116 = assay: Cytotoxicity against Homo sapiens (human) HCT116 cells assessed as growth inhibition after 48 hr by MTT assay; format: functional, cell-based; details: HCT-116, 48 h
HL-60 [28] = assay: Inhibition of nitrite production in Homo sapiens (human) HL60 cells at 5 to 15 uM after 12 hr by Griess assay; format: functional, cell-based
HL-60 [29] = assay: Cell cycle arrest in Homo sapiens (human) HL60 cells assessed as accumulation at sub-G1 phase at 15 uM after 9 hr by propidium iodide staining-based FACS flow cytometric analysis (reference value: 0.1%); format: functional

Structure (SMILES) | Activity (HL-60 [1]) | Activity (HL-60 [2]) | Activity (HL-60 [3]) | IC50 (HSC-2) | Activity (HL-60 [4]) | Activity (HL-60 [5]) | inhibition (HL-60 [6]) | Activity (HL-60 [7]) | Activity (HL-60 [8]) | Activity (HL-60 [9]) | Activity (HL-60 [10]) | inhibition (HL-60 [11]) | Activity (HL-60 [12]) | Activity (HL-60 [13]) | IC50 (HL-60 [14]) | IC50 (Vero) | Activity (HL-60 [15]) | Activity (HL-60 [16]) | IC50 (MCF7) | IC50 (HCT-116) | further results
CC(C)=CC(=O)O[C@@H]1CC(C)(C)C[C@H]2C3=CC[C@@H]4[C@@]5(C)CC[C@H](O)C(C)(C)[C@@H]5CC[C@@]4(C)[C@]3(C)CC[C@@]12C(=O)O [Reduced Lantadene B] | 42.1% | 19.9% | Active | 6.4 µM | 61.6% | Active | Dose-dependent effect | Active | 14.8% | Dose-dependent effect | 32.8% | Dose-dependent effect | 0.5% | 0.3% | 2.1 µM | > 50 µM | Active | 12.6% | 5.2 µM | 1.8 µM | Activity (HL-60 [17]): 18.2%; Activity (HL-60 [18]): 40.8%; Activity (HL-60 [19]): 62.1%; Activity (HL-60 [20]): 7.4%; Activity (HL-60 [21]): Active; Activity (HL-60 [22]): 13.9%; Activity (HL-60 [23]): Active; Activity (HL-60 [24]): 3.4%; Activity (HL-60 [25]): Active; Activity (HL-60 [26]): 55.1%; Activity (HL-60 [27]): Dose-dependent effect
CNC(=N)NCCC[C@H](N)C(=O)O |  |  |  |  |  |  |  |  |  |  |  |  |  |  |  |  |  |  |  |  | inhibition (HL-60 [28]): Active
C/C=C(/C)C(=O)O[C@@H]1CC(C)(C)C[C@H]2C3=CC[C@@H]4[C@@]5(C)CC[C@H](O)C(C)(C)[C@@H]5CC[C@@]4(C)[C@]3(C)CC[C@@]12C(=O)O [Reduced Lantadene A] | 44.8% | 20.8% | Active | 6.1 µM | 63.6% | Active | Dose-dependent effect | Active | 15.8% | Dose-dependent effect | 34.4% | Dose-dependent effect | 0.4% | 0.2% | 1.5 µM | > 50 µM | Active | 14% | 6 µM | 1.2 µM | Activity (HL-60 [29]): 1.2%; Activity (HL-60 [17]): 20.8%; Activity (HL-60 [18]): 42%; Activity (HL-60 [19]): 64.2%; Activity (HL-60 [20]): 8.4%; Activity (HL-60 [21]): Active; Activity (HL-60 [22]): 15.4%; Activity (HL-60 [23]): Active; Activity (HL-60 [24]): 3.2%; Activity (HL-60 [25]): Active; Activity (HL-60 [26]): 57%; Activity (HL-60 [27]): Dose-dependent effect
CC(C)=CC(=O)O[C@@H]1CC(C)(C)C[C@@H]2C3=CC[C@@H]4[C@@]5(C)CCC(=O)C(C)(C)[C@@H]5CC[C@@]4(C)[C@]3(C)CC[C@]21C(=O)O [LANTADENE B] |  |  |  | 43 µM |  |  |  |  |  |  |  |  |  |  | 19.1 µM | > 50 µM |  |  | 81.4 µM | 13.2 µM | 
C/C=C(/C)C(=O)O[C@@H]1CC(C)(C)C[C@H]2C3=CC[C@@H]4[C@@]5(C)CCC(=O)C(C)(C)[C@@H]5CC[C@@]4(C)[C@]3(C)CC[C@@]12C(=O)O [LANTADENE A] |  |  |  | 50.7 µM |  |  |  |  |  |  |  |  |  |  | 19.3 µM | > 50 µM |  |  | 25.8 µM | 13.4 µM | 
